Measured values from paper PMC5799093, “Proceedings of Réanimation 2018, the French Intensive Care Society International Congress” (Annals of Intensive Care, 2018).
Read-outs that look alike come from different tables or passages of the source.

Tests used:
Staphylococcus aureus [1] = assay: Resistance in nosocomial urinary tract infection: Staphylococcus aureus (P-219); conditions: January 2010 - June 2014
[2] = tested on: coagulase negative Staphylococcus; assay: Resistance of nosocomial infection isolates: coagulase negative Staphylococcus (P-222); assay type: cell-based; conditions: n = 12 isolates, 2016
Description: (§1) Patients and methods: This was a retrospective study conducted within a 22-bed medical ICU of a Tunisian teaching hospital (301 beds) carried from January 1st to December 31, 2016. We recorded demographic patients’ characteristics which ICU’s stay was complicated with at least one NI. Then we described pathogens and microbiological specificities of NI.

Staphylococcus aureus [3] = assay type: cell-based; conditions: blood culture isolates 2012–2016
Experimental: (§2) Patients and methods: From January 2012 to December 2016, a total of 2,182 non repetitive strains were isolated from blood cultures. Incubation of blood culture vials and the detection of bacterial growth were performed by the BACTEC system. All Isolated organisms were identified on the basis of standard microbiological techniques. Antibiotic susceptibility testing was carried out by the agar disk diffusion method, and susceptibility results were interpreted using clinical breakpoints according to CA-SFM 2013 and 2015 guidelines. Data were analyzed using the SIR-system. Minimum inhibitory concentrations of colistin, imipenem and vancomycin were determined using the Etest® method (bioMérieux).

acintobacter baumanii = assay: Resistance of VAP isolates: baumanii (P-224); assay type: cell-based; conditions: 2014-2015
Description: (§3) Patients and methods: Retrospective study spread over 2 years from January 2014 to December 2015 carried out in the resuscitation unit of the medical and surgical emergency department of CHUOran. Data utilization with Whonet software. The criteria of vap retained are those of CTINILS (May 2007).

[4] = tested on: Extended spectrum betalactamase producing Enterobacteriaceae; assay: Antibiotic resistance of ESBL producing Enterobacteriaceae (P-147); assay type: cell-based; conditions: isolates 2015 and 2016
Pseudomonas [5] = assay: Resistance of VAP isolates: pseudomonas (P-224); assay type: cell-based; conditions: 2014-2015
Description: as §3

Acinetobacter baumannii [6] = conditions: January 2010 - June 2014
Acinetobacter Baumanii = assay: Resistance of nosocomial infection isolates: Acinetobacter Baumanii (P-222); assay type: cell-based; conditions: n = 39 isolates, 2016
Description: as §1

Acinetobacter baumannii [7] = assay type: cell-based; conditions: blood culture isolates 2012–2016
Experimental: as §2

Pseudomonas aeruginosa [8] = tested on: Pseudomonas aeruginosa
Escherichia-coli = assay: Resistance in nosocomial urinary tract infection: Escherichia-coli (P-219); conditions: January 2010 - June 2014
Pseudomonas aeruginosa [9] = assay: Disk diffusion susceptibility of P. aeruginosa isolated from burned patients (P-48); assay type: cell-based; conditions: 485 strains from burned patients 2012-2015, disk diffusion, FSM breakpoints
Pseudomonas [10] = conditions: January 2010 - June 2014
[11] = Beta-lactam plasma concentrations in children with severe sepsis or septic shock (HPLC); conditions: current standard dosing
[12] = tested on: Pseudomonas aeruginosa (PA); assay: Antibiotic resistance of Pseudomonas aeruginosa before/after antibiotic stewardship (P-214); assay type: cell-based
[13] = tested on: carbapenemase-producing Enterobacteriaceae; assay: Antibiotic susceptibility of Enterobacteriaceae with decreased susceptibility to carbapenems; assay type: cell-based; conditions: 39 selected bacteria

Row | Structure (SMILES) | resistant (Staphylococcus aureus [1]) | resistant [2] | resistance rate (Staphylococcus aureus [3]) | resistant (acintobacter baumanii) | rate of resistance [4] | resistant (Pseudomonas [5]) | resistant (Acinetobacter baumannii [6]) | resistance (Acinetobacter Baumanii) | resistance rate (Acinetobacter baumannii [7]) | resistance rate (Pseudomonas aeruginosa [8]) | resistant (Escherichia-coli) | strains resistant (Pseudomonas aeruginosa [9]) | resistant (Pseudomonas [10]) | patients with insufficient plasma concentration [11] | resistance rate (Klebsiella pneumoniae) | antibiotic resistance of PA ([12]; period 2007–2010 (P1)) | antibiotic resistance of PA ([12]; period 2011–2014 (P2), after antibiotic stewardship, p < 0.01) | strains with MIC > 8 mg l [13]
1 | COc1cccc(OC)c1C(=O)N[C@@H]1C(=O)N2[C@@H]1SC(C)(C)[C@@H]2C(=O)O [methicillin] | 25% | 75% | 70% |  |  |  |  |  |  |  |  |  |  |  |  |  |  | 
2 | C[C@@H](O)[C@H]1C(=O)N2C(C(=O)O)=C(SCCN=CN)C[C@H]12 [imipenem] |  |  |  | 55% | 2.17% | 18.4% | 87% | 100% | 94% | 72% | 8% | 56% | 64% | 0% | 15% | 38% | 18% | 30%
